From patent publication US20260138961A1, “MODULATORS OF MITOCHONDRIAL DNA REPLICATION” (Pretzel Therapeutics, Inc., priority 2022, published 2026)

Target: T1, POLγA:Y955C (Homo sapiens, UniProt P54098, Y955C)
T1 sequence (P54098 1-1239 Y955C): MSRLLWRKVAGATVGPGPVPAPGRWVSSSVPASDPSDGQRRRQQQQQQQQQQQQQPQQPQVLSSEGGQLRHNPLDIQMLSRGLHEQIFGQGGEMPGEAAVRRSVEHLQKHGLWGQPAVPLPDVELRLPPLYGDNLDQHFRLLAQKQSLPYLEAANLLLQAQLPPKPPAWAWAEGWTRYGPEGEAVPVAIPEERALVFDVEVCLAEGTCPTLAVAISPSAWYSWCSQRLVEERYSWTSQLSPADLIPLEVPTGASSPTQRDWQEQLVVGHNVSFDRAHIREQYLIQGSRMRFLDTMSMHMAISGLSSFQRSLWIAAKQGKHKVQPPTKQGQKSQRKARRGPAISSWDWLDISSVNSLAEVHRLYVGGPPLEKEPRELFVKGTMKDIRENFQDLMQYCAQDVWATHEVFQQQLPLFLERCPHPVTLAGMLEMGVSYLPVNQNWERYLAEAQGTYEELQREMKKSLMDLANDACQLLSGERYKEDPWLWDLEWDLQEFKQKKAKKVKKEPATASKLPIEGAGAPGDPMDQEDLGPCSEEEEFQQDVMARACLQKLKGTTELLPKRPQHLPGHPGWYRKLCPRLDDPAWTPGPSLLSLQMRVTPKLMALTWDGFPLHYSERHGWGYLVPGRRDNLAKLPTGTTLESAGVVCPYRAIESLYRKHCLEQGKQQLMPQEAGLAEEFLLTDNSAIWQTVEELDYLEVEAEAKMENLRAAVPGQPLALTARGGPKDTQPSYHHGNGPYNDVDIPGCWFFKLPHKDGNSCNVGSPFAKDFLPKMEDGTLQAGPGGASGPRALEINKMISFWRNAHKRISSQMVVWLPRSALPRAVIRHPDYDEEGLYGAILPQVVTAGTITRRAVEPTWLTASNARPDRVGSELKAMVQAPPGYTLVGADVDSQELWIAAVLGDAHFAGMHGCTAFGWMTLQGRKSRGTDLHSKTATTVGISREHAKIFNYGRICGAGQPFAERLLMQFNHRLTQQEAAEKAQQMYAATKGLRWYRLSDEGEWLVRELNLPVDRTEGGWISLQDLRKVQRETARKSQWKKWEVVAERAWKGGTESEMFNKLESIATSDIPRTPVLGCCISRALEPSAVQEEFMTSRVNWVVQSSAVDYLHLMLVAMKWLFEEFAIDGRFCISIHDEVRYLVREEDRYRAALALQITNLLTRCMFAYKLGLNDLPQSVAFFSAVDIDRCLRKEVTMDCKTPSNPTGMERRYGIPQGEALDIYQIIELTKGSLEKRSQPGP
T1 sequence (Q9UHN1 1-485 partner): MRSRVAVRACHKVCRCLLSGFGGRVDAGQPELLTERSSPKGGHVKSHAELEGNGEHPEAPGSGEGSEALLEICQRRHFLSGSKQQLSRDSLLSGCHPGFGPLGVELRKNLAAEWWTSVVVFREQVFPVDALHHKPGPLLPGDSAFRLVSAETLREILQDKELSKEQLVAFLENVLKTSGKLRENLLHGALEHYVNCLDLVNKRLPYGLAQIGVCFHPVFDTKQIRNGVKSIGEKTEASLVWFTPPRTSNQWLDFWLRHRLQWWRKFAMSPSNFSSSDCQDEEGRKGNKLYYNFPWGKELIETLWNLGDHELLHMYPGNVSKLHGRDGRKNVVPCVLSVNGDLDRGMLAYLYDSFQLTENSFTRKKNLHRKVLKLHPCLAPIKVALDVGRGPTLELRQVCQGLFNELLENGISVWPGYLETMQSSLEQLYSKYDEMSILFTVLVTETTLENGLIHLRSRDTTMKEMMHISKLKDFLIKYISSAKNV
Experiment: DNA polymerization assay, POLγA:Y955C mutant
Format: biochemical
Conditions: stimulation of polymerase activity, primed M13mp18 ssDNA, 37° C. 2 hours
Description: DNA Polymerization Assay to Monitor Effects on Human Wildtype POLγ and Four Disease-Causing Mutant Variants of Human POLγ.
The ability of small molecules to stimulate the polymerase activity of POLγ was analyzed in a quantitative fluorescence SYBR Green I assay with fluorescence intensity (FI) readout.
In the presence of dNTPs, wild type human POLγ and mutant derivatives thereof were incubated with single-stranded, circular M13mp18 ssDNA hybridized to a short DNA oligonucleotide that functions as a primer for initiation of DNA synthesis. POLγ and mutant derivatives thereof will extend the primer and use the M13mp18 molecule as a template to synthesize long stretches of double-stranded DNA. SYBR Green I, which is a double-stranded DNA-binding dye, was used to quantify formation of double-stranded DNA in the reaction. When bound to double-stranded DNA, SYBR Green I fluorescence increases by up to 100-fold.
The assay was performed in the 384-well plate format. Upon addition of compounds, changes in double-stranded DNA synthesis activity can be monitored by following effects on fluorescent intensity.
The reactions also contained the accessory POLγB subunit, and the human mitochondrial single-stranded DNA binding protein (mtSSB).
The DNA template mixture used in the assay contained 0.5 nM primed M13 mp18 ssDNA, 400 nM mtSSB, 0.1 mM Tris-HCl (pH 8.0), 0.1 mM dNTP, 10 mM MgCl2, 0.1 mg/mL BSA, 1 mM TCEP solution, and 0.02% Triton X-100. The DNA template mixture for the wild type protein contained either 100 μM dNTP, 1 μM dNTP, or 0.1 μM dNTP, designated in Table 2 as 100 μM, 1 μM, and 0.1 μM, respectfully.
Microplates with compounds (0.1 μL in each well) to be tested in the assay were prepared from 10 mM compound stocks in 100% DMSO, and equal amounts of DMSO without any compound were added to positive and negative control wells.
The protein mixture was dispensed (5 μL into each well) into compound plates and incubated at 37° C. for 15 minutes. After incubation, 5 μL of the DNA template mixture was dispensed into each well. The plates were then incubated at 37° C. for 2 hours.
During incubation, a combined stop buffer and detection reagent solution was prepared. The buffer contained 25 mM EDTA (pH 8.0), 0.02% Triton X-100, and SYBR Green I [Invitrogen] diluted 10,000× (for fluorescent readout). EDTA will stop the enzymatic reaction by chelating magnesium ions.

| Compound | AC50 |
| --- | --- |
| Cc1csc(-c2ccccc2NS(=O)(=O)c2cc(C)c(Cl)cc2C)n1 [Example 80, 4-chloro-2,5-dimethyl-N-(2-(4-methylthiazol-2-yl)phenyl)benzenesulfonamide] | > 100000 nM |
| Cc1cc(S(=O)(=O)Nc2csc(-c3ccccc3)n2)c(C)cc1Cl [Example 81, 4-chloro-2,5-dimethyl-N-(2-phenylthiazol-4-yl)benzenesulfonamide] | 200 nM |
| Cc1cc(S(=O)(=O)Nc2cccc(-c3ncc(CN(C)C)s3)c2)c(C)cc1Cl [Example 87, 4-chloro-N-(3-(5-((dimethylamino)methyl)thiazol-2-yl)phenyl)-2,5-dimethylbenzenesulfonamide] | 6000 nM |

Results, then the molecule that gave them:

| AC50 | Compound |
| --- | --- |
| 6000 nM | Cc1cc(S(=O)(=O)Nc2ccc3ccn(C)c3c2)c(C)cc1Cl [Example 72, 4-chloro-2,5-dimethyl-N-(1-methyl-1H-indol-6-yl)benzenesulfonamide] |
| 800 nM | Cc1nc2ccc(NS(=O)(=O)c3cc(C)c(Cl)cc3C)cc2s1 [Example 73, 4-chloro-2,5-dimethyl-N-(2-methylbenzo[d]thiazol-6-yl)benzenesulfonamide] |
| 2000 nM | Cc1cc(S(=O)(=O)Nc2cccc(-c3ncc(C4CC4)s3)c2)c(C)cc1Cl [Example 76, 4-chloro-N-(3-(5-cyclopropylthiazol-2-yl)phenyl)-2,5-dimethylbenzenesulfonamide] |
| 100 nM | Cc1cc(S(=O)(=O)Nc2cccc(-c3ncc(CO)s3)c2)c(C)cc1Cl [Example 89, 4-chloro-N-(3-(5-(hydroxymethyl)thiazol-2-yl)phenyl)-2,5-dimethylbenzenesulfonamide] |
